Measured values from patent US9624159B2, “Aniline derivatives, their preparation and their therapeutic application” (SANOFI, priority 2011, dated 2017).

Assays:
[1] = molecular target: human prostanoid EP2 receptor (Homo sapiens (Human), UniProt P43116); experiment: Human prostanoid EP2 receptor cellular functional assay (cAMP, HTRF); type: cell-based; conditions: percent of control specific agonist response (10 μM PGE2)
Procedure: Test 1.2: Human Prostanoid EP2 Receptor Cellular Functional Assay
Human CHO cells expressing the recombinant human prostanoid EP2 receptor were suspended in assay medium (HBSS buffer (Invitrogen) containing 20 mM HEPES (pH7.4) and 500 μM isobutyl-methylxanthine IBMX) and plated out to yield approximately 1×10^4 cells/well in a 96-well. Following this, cells were incubated with agonists for 30 min in the presence of the test compounds. For stimulated control measurements, separate assay wells contain 10 μM PGE2 (control specific agonist). All incubations were carried out at 37° C. in a 5% CO2 atmosphere. Following incubation, the amount of cAMP in each well was determined by HTRF method. The cells are lysed and the fluorescence acceptor (D2-labeled cAMP) and fluorescence donor (anti-cAMP antibody labeled with europium cryptate) are added. After 60 min at room temperature, the fluorescence transfer is measured at λex=337 nm and λem=620 and 665 nm using a microplate reader (Rubystar, BMG).
The cAMP concentration is determined by dividing the signal measured at 665 nm by that measured at 620 nm (ratio).
The standard reference agonist PGE2 was tested at several concentrations to generate a concentration-response curve to determined EC50.
Analysis and Expression of Results […]

[2] = system: laser-induced glaucomatous monkeys; experiment: Laser-induced hypertensive cynomolgus monkey, intraocular pressure; type: in vivo; conditions: 0.01% topically to glaucomatous eye once daily for 5 days
Procedure: Laser-Induced Hypertensive Cynomolgus Monkey
Ten adult female cynomolgus monkeys, each weighing 3-5 kg, in which glaucoma had been induced unilaterally by diode laser photocoagulation of the mid-trabecular meshwork, were used in this study.
Intraocular pressure (IOP) was measured at 0 hr (before drug administration) and then hourly until 6 hrs after drug administration on one baseline day, one vehicle-treatment day, and treatment days 1, 3, and 5 with 0.01% of compound II(d).
Compound II(d) was tested in two groups of 4 monkeys for a total of 8 monkeys. Following one baseline day (untreated) and one vehicle-treatment day (50 μl (25 μl×2), drop of vehicle to the glaucomatous eye at 9:30 (a 50 μl drop (25 μl×2) of compound (II(d)) were topically applied to the glaucomatous eye only once daily at 9:30 am for 5 consecutive days.
Slit-lamp examination for the detection of aqueous humor flare and cells was performed in a dark room before drug administration and at 1, 3 and 5 hrs after dosing on baseline day and at the same times on treatment days 1, 3 and 5.
Two-tailed paired and unpaired t test and the ANOVA test were used for statistical analysis.

Chain of human prostanoid EP2 receptor (P43116 whole entry): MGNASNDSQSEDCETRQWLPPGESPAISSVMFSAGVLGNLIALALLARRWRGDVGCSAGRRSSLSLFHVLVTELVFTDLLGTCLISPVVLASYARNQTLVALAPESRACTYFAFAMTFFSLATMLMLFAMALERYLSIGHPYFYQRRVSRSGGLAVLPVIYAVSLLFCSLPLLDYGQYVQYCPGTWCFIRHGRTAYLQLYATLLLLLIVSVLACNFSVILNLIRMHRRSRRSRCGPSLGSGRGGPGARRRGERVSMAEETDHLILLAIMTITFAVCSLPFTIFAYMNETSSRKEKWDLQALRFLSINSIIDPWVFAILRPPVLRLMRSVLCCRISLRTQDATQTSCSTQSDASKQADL

| Structure (SMILES) | In vitro functional assay % response [1] | overall IOP reduction [2] |
| --- | --- | --- |
| C[C@@H](Nc1c(F)ccc(OCC(=O)O)c1F)c1cc(-c2cccc(F)c2)ccc1F (single isomer, unassigned) [I(as) (+isomer)] | 124% |  |
| CC(C)OC(=O)COc1ccc(F)c(NCc2cc(-c3cccc(F)c3)ccc2F)c1F [II(d), Isopropyl 2-[2,4-difluoro-3-[[2-fluoro-5-(3-fluorophenyl)phenyl]methylamino]phenoxy]acetate] |  | 22% |
